The values below come from ChEMBL document CHEMBL1201862, “PubChem BioAssay data set” (2004).

Test systems include HOP-92; RPMI-8226; NCI-H522; COLO 205; UACC-62; HCT-116; A549; HT-29; HL-60; UO-31; MOLT-4; 786-0; HOP-62; SNB-75; KM12; HCC 2998.
Common to all, as to assay: NCI tumour cell line growth inhibition, 48 h

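Briefly, cells in 96-well plates were exposed to five compound concentrations for 48 h, and endpoints were estimated by linear interpolation. GI50 is the concentration that inhibits growth by half.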 Activity calls are given as the source filed them. No stated cut-off is given here; in the data, active = GI50 up to about 1.1 µM and inactive = higher.

For `Cn1nc(-c2ccccc2)c(C(=O)/C=C/c2ccc(Cl)cc2)c(N2CCCC2)c1=O`, the GI50 was 1.67 µM (inactive) in the experiment with HOP-92; 2.7 µM (inactive) in the experiment on RPMI-8226; 2.07 µM (inactive) in the experiment with NCI-H522; 2.11 µM (inactive) in the experiment on COLO 205; 4.55 µM (inactive) in the experiment on UACC-62; 2.56 µM (inactive) with HCT-116. Further, the GI50 in the experiment on A549 was 4.36 µM (inactive); in the experiment with HT-29, 2.21 µM (inactive); in the experiment on HL-60 it was 1.92 µM (inactive); with UO-31, 8.51 µM (inactive); in the experiment on MOLT-4 it was 2.38 µM (inactive); with 786-0, 3.13 µM (inactive). In addition, the GI50 in the experiment with HOP-62 was 2.23 µM (inactive).
In the case of `C=CN1C(=O)[C@H](Oc2ccccc2)[C@@H]1c1ccccc1`, the GI50 was 15.6 µM (inactive) in the experiment on SNB-75; 33 µM (inactive) with KM12; 20.3 µM (inactive) in the experiment on RPMI-8226; 32.6 µM (inactive) with NCI-H522; 24.9 µM (inactive) in the experiment on HCT-116; 26.8 µM (inactive) with A549. Besides, the GI50 in the experiment with HT-29 was 22.7 µM (inactive); in the experiment with UO-31, 36.3 µM (inactive); in the experiment with MOLT-4 it was 36.6 µM (inactive); with 786-0 it was 18.9 µM (inactive); with HCC 2998, 47.4 µM (inactive); in the experiment on HOP-62 it was 32.7 µM (inactive).
`CC1=NN(C(=O)c2ccc(Cl)cc2)C(=O)/C1=C/c1c(O)cc(O)c2ccccc12`: the GI50 in the experiment on KM12, with HOP-92, in the experiment on RPMI-8226, in the experiment on NCI-H522, in the experiment with COLO 205 and in the experiment with UACC-62 was > 100 µM (inactive) throughout. In addition, the GI50 in the experiment on HCT-116, with A549, in the experiment with HT-29, in the experiment with HL-60, in the experiment on UO-31 and in the experiment on MOLT-4 was > 100 µM (inactive) in each case. The GI50 in the experiment with 786-0, with HCC 2998 and in the experiment on HOP-62 was > 100 µM (inactive) throughout.
Consider `CC(=O)Nc1ccc(-c2nnc(SCC(=O)Nc3ccccc3C)o2)cc1`, for which the GI50 is > 100 µM (inactive) with SNB-75; 44.7 µM (inactive) in the experiment on KM12; 39.4 µM (inactive) in the experiment on HOP-92; 46.3 µM (inactive) with RPMI-8226; 58.3 µM (inactive) in the experiment with NCI-H522; > 100 µM (inactive) in the experiment on COLO 205. Moreover, the GI50 was > 100 µM (inactive) in the experiment with UACC-62; 15.6 µM (inactive) with HCT-116; > 100 µM (inactive) in the experiment with A549; 38 µM (inactive) in the experiment on HT-29; 57.9 µM (inactive) in the experiment with HL-60; 52 µM (inactive) with UO-31. The GI50 in the experiment with MOLT-4 is 51.9 µM (inactive); with 786-0, > 100 µM (inactive); with HOP-62, > 100 µM (inactive).
On to `Nc1ncnc2c1ncn2C1OC(CSCc2ccc(Cl)cc2)C(O)C1O` (stereo unspecified), for which the GI50 with SNB-75 was 18.3 µM (inactive); in the experiment with KM12, 24.2 µM (inactive); in the experiment with HOP-92 it was 4.18 µM (inactive); in the experiment with RPMI-8226 it was 21.8 µM (inactive); in the experiment with COLO 205, 40.4 µM (inactive); with UACC-62 it was 46.9 µM (inactive). Moreover, the GI50 in the experiment with HCT-116 is 19.8 µM (inactive); in the experiment on A549, 43.1 µM (inactive); with HT-29 it was 22.1 µM (inactive); with HL-60, 23.8 µM (inactive); in the experiment with UO-31, 18.9 µM (inactive); in the experiment on MOLT-4, 10.7 µM (inactive). For the same compound, the GI50 with 786-0 was 34.1 µM (inactive); in the experiment on HCC 2998, 44.9 µM (inactive); in the experiment with HOP-62 it was 17 µM (inactive).
Turning to `COC(=O)[C@H]1C=C[C@@H](C)n2c(=O)c3ccccc3c(=O)n21`, the GI50 in the experiment with SNB-75, in the experiment on KM12, with HOP-92, with RPMI-8226, with NCI-H522 and in the experiment on COLO 205 was > 100 µM (inactive) each time. The GI50 in the experiment with HCT-116, in the experiment with A549, with HT-29, in the experiment with HL-60, in the experiment with UO-31 and in the experiment with MOLT-4 was > 100 µM (inactive) each time. Further, the GI50 with 786-0, with HCC 2998 and in the experiment with HOP-62 was > 100 µM (inactive) each time.
Turning to `CC(C)(C)OC(=O)c1cccnc1/C=N/O`, the GI50 with SNB-75, with KM12, in the experiment with HOP-92, in the experiment with NCI-H522, with COLO 205 and in the experiment with UACC-62 was > 100 µM (inactive) each time. Besides, the GI50 is > 100 µM (inactive) in the experiment with HCT-116; > 100 µM (inactive) in the experiment with A549; > 100 µM (inactive) in the experiment on HT-29; > 100 µM (inactive) in the experiment on HL-60; > 100 µM (inactive) in the experiment with UO-31; 68.2 µM (inactive) with MOLT-4. Moreover, the GI50 in the experiment on 786-0 was 67.6 µM (inactive); with HOP-62, > 100 µM (inactive).
On to `O=C1c2ccccc2C(=O)N1C/C=N/NS(=O)(=O)c1cccc([N+](=O)[O-])c1`, for which the GI50 in the experiment with SNB-75, in the experiment with KM12, with RPMI-8226, in the experiment with NCI-H522, in the experiment on COLO 205 and in the experiment with UACC-62 was > 100 µM (inactive) throughout. The GI50 in the experiment with HCT-116, in the experiment with A549, in the experiment on HT-29, in the experiment with HL-60, in the experiment on UO-31 and in the experiment on MOLT-4 was > 100 µM (inactive) throughout. Also, the GI50 in the experiment on 786-0, in the experiment on HCC 2998 and in the experiment on HOP-62 was > 100 µM (inactive) each time.
As for `CCC(=O)c1c(NOC2OC(COC(C)=O)C(OC(C)=O)C(OC(C)=O)C2OC(C)=O)nc(OC)n(C)c1=O` (stereo unspecified), the GI50 in the experiment with SNB-75, with KM12, in the experiment on NCI-H522, with COLO 205, with UACC-62 and in the experiment on HCT-116 was > 100 µM (inactive) each time. Moreover, the GI50 with A549, with HT-29, in the experiment with MOLT-4, in the experiment on 786-0, in the experiment with HCC 2998 and with HOP-62 was > 100 µM (inactive) each time.
As for `CCOC(=O)NC(=O)c1cn(CCCOC(=O)NCCCCCCNC(=O)OCCCn2cc(C(=O)NC(=O)OCC)c(=O)[nH]c2=O)c(=O)[nH]c1=O`, the GI50 in the experiment with SNB-75 was 23.3 µM (inactive); in the experiment with HOP-92, 24.3 µM (inactive); with RPMI-8226, 14.1 µM (inactive); with COLO 205, 19.8 µM (inactive); in the experiment with UACC-62, 20.1 µM (inactive); in the experiment with HCT-116, 35.1 µM (inactive). Also, the GI50 in the experiment with A549 is > 100 µM (inactive); with HT-29, 63.4 µM (inactive); in the experiment with HL-60 it was 16.7 µM (inactive); with MOLT-4, 36.3 µM (inactive); with 786-0, 20 µM (inactive); in the experiment on HCC 2998, 20 µM (inactive). Also, the GI50 in the experiment with HOP-62 is 40.1 µM (inactive).
Take `CNC1=Nc2ccc(Cl)cc2C(OP(=O)(N2CCOCC2)N2CCOCC2)=NC1`: the GI50 in the experiment with SNB-75 was > 100 µM (inactive); in the experiment with KM12, > 100 µM (inactive); in the experiment with RPMI-8226, > 100 µM (inactive); with NCI-H522, 26.5 µM (inactive); in the experiment on UACC-62 it was > 100 µM (inactive); in the experiment on HCT-116 it was > 100 µM (inactive). The GI50 with A549, with HT-29, in the experiment with HL-60, with UO-31, in the experiment with MOLT-4 and in the experiment on 786-0 was > 100 µM (inactive) each time. Also, in the experiment with HCC 2998, the GI50 is > 100 µM (inactive).
`Cn1cc(NC(=O)c2cc(NC(=O)CCCCCC(=O)Nc3cc(C(=O)Nc4cc(C(=O)NCCC(=N)N)n(C)c4)n(C)c3)cn2C)cc1C(=O)NCCC(=N)N`: the GI50 was > 100 µM (inactive) with SNB-75; 73.8 µM (inactive) in the experiment on KM12; > 100 µM (inactive) in the experiment on HOP-92; > 100 µM (inactive) in the experiment on COLO 205; 64.9 µM (inactive) in the experiment with UACC-62; 67.1 µM (inactive) in the experiment with HCT-116. Also, the GI50 was 45.3 µM (inactive) in the experiment with A549; > 100 µM (inactive) with HT-29; 30 µM (inactive) in the experiment on HL-60; > 100 µM (inactive) in the experiment on UO-31; > 100 µM (inactive) in the experiment on 786-0; > 100 µM (inactive) in the experiment on HCC 2998.
`N#C/C(=C/c1cccc2ccccc12)C(=O)c1ccccc1`: the GI50 with KM12 is 20.9 µM (inactive); in the experiment on RPMI-8226, 22.3 µM (inactive); in the experiment with NCI-H522, 21.5 µM (inactive); in the experiment on UACC-62 it was 18.3 µM (inactive); in the experiment on HCT-116, 18.5 µM (inactive); in the experiment with A549 it was > 10 µM (inactive). The GI50 in the experiment with HT-29 was > 100 µM (inactive); in the experiment on HL-60 it was 19.4 µM (inactive); in the experiment with UO-31, 18.4 µM (inactive); in the experiment with MOLT-4 it was 14.7 µM (inactive); in the experiment with 786-0, 16.3 µM (inactive); in the experiment with HCC 2998, 23.6 µM (inactive). Moreover, in the experiment on HOP-62, the GI50 was 18.3 µM (inactive).
As to `COc1cc2c(c(OC)c1OC)-c1ccc(SC)c(=O)cc1[C@@H](NC(=O)c1cccc([N+](=O)[O-])c1)CC2`, the GI50 in the experiment with SNB-75 is 0.0264 µM (active); with KM12 it was < 0.01 µM (active); with RPMI-8226, 0.0208 µM (active); with NCI-H522 it was < 0.01 µM (active); with COLO 205 it was 0.0168 µM (active); in the experiment on UACC-62, 0.0292 µM (active). Besides, the GI50 is 0.0174 µM (active) in the experiment on HCT-116; 0.0241 µM (active) in the experiment with HT-29; < 0.01 µM (active) in the experiment with HL-60; 0.0516 µM (active) with UO-31; 0.0202 µM (active) with MOLT-4; 0.0351 µM (active) in the experiment with 786-0. The GI50 with HCC 2998 was 0.0207 µM (active); with HOP-62, 0.0257 µM (active).
